Assays:
Assay in all cases: Kinase selectivity assay
Format in all cases: biochemical
DDR2 = target: T1, DDR2 (Homo sapiens, UniProt Q16832)
T1 construct: ICE Biosciences (Beijing, China), ran the assays
Description: (§1) The selectivity of CP1 for PRDX1 was evaluated through kinase selectivity assays against other PRDX family members and a panel of kinases. The experiments were conducted by ICE Biosciences (Beijing, China).

PRDX5 = target: T2, PRDX5 (Homo sapiens, UniProt P30044); conditions: target PRDX5; read-out: CP1 IC50
T2 construct: ICE Biosciences (Beijing, China), ran the assays
T2 sequence (P30044 53-214): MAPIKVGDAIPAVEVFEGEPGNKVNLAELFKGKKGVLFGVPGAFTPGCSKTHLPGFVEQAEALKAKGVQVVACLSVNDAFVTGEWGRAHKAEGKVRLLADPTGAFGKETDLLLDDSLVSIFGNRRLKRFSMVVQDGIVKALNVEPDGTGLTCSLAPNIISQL
Description: as §1

NTRK3 = target: T3, NTRK3 (Homo sapiens, UniProt Q16288)
T3 construct: assay run by ICE Biosciences (Beijing, China)
Description: as §1

BTK = target: T4, BTK (Homo sapiens, UniProt Q06187); conditions: target BTK; read-out: CP1 IC50
T4 construct: ICE Biosciences (Beijing, China), ran the assays
Description: as §1

PTK2 = target: T5, PTK2 (Homo sapiens, UniProt Q05397); conditions: target PTK2; read-out: CP1 IC50
T5 construct: assay run by ICE Biosciences (Beijing, China)
Description: as §1

PRDX2 = target: T6, PRDX2 (Homo sapiens, UniProt P32119); conditions: target PRDX2; read-out: CP1 IC50
T6 construct: ICE Biosciences (Beijing, China), ran the assays
T6 sequence (P32119 whole entry): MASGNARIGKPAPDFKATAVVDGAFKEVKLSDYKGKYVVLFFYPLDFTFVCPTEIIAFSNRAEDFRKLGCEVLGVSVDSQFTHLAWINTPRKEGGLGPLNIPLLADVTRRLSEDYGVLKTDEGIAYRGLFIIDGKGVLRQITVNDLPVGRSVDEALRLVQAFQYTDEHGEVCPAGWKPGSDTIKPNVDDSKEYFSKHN
Description: as §1

EPHB3 = EPHB3 (Homo sapiens, UniProt P54753); conditions: target EPHB3; read-out: CP1 IC50
Description: as §1

JAK1 = JAK1 (Homo sapiens, UniProt P23458); conditions: target JAK1; read-out: CP1 IC50
Description: as §1

EPHA8 = EPHA8 (Homo sapiens, UniProt P29322); conditions: target EPHA8; read-out: CP1 IC50
Sequence of EPHA8 (P29322 28-1005): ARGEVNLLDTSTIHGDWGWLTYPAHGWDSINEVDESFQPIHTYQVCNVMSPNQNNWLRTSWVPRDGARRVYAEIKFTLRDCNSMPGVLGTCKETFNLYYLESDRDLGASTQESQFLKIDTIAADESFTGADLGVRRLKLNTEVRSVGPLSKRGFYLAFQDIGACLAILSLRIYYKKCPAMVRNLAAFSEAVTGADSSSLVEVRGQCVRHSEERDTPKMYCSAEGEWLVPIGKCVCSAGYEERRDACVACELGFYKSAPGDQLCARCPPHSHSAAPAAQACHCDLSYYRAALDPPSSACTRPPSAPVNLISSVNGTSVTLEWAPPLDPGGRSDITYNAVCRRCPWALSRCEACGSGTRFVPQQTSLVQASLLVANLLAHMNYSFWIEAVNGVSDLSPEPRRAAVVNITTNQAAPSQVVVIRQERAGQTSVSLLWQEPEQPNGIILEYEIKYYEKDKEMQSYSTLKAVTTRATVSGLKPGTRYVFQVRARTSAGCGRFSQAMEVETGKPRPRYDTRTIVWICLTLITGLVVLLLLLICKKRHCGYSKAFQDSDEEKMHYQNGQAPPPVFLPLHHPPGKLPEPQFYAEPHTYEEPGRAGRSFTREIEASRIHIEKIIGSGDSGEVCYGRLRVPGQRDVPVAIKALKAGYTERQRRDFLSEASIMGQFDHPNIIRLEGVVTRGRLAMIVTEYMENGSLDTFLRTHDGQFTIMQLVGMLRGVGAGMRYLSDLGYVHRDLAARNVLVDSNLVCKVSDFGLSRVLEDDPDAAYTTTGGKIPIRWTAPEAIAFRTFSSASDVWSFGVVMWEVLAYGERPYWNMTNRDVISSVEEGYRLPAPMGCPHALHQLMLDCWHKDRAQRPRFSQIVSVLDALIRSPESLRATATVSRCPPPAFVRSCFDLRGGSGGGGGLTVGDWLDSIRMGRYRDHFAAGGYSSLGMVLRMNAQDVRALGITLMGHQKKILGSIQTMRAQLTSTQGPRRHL
Description: as §1

NTRK1 = NTRK1 (Homo sapiens, UniProt P04629)
Description: as §1

ABL1 = target: T7, ABL1 (Homo sapiens, UniProt P00519); conditions: target ABL1; read-out: CP1 IC50
T7 construct: ICE Biosciences (Beijing, China), ran the assays
Description: as §1

TYK2 = target: T8, TYK2 (Homo sapiens, UniProt P29597); conditions: target TYK2; read-out: CP1 IC50
T8 construct: ICE Biosciences (Beijing, China), a contract laboratory that ran the assay
Description: as §1

RET = target: T9, RET (Homo sapiens, UniProt P07949); conditions: target RET; read-out: CP1 IC50
T9 construct: assay run by ICE Biosciences (Beijing, China)
Description: as §1

PDGFRB = target: T10, PDGFRB (Homo sapiens, UniProt P09619); conditions: target PDGFRB; read-out: CP1 IC50
T10 construct: assay run by ICE Biosciences (Beijing, China)
Description: as §1

INSR = INSR (Homo sapiens, UniProt P06213); conditions: target INSR; read-out: CP1 IC50
Description: as §1

KDR = KDR (Homo sapiens, UniProt P35968); conditions: target KDR; read-out: CP1 IC50
Sequence of KDR (P35968 20-1356): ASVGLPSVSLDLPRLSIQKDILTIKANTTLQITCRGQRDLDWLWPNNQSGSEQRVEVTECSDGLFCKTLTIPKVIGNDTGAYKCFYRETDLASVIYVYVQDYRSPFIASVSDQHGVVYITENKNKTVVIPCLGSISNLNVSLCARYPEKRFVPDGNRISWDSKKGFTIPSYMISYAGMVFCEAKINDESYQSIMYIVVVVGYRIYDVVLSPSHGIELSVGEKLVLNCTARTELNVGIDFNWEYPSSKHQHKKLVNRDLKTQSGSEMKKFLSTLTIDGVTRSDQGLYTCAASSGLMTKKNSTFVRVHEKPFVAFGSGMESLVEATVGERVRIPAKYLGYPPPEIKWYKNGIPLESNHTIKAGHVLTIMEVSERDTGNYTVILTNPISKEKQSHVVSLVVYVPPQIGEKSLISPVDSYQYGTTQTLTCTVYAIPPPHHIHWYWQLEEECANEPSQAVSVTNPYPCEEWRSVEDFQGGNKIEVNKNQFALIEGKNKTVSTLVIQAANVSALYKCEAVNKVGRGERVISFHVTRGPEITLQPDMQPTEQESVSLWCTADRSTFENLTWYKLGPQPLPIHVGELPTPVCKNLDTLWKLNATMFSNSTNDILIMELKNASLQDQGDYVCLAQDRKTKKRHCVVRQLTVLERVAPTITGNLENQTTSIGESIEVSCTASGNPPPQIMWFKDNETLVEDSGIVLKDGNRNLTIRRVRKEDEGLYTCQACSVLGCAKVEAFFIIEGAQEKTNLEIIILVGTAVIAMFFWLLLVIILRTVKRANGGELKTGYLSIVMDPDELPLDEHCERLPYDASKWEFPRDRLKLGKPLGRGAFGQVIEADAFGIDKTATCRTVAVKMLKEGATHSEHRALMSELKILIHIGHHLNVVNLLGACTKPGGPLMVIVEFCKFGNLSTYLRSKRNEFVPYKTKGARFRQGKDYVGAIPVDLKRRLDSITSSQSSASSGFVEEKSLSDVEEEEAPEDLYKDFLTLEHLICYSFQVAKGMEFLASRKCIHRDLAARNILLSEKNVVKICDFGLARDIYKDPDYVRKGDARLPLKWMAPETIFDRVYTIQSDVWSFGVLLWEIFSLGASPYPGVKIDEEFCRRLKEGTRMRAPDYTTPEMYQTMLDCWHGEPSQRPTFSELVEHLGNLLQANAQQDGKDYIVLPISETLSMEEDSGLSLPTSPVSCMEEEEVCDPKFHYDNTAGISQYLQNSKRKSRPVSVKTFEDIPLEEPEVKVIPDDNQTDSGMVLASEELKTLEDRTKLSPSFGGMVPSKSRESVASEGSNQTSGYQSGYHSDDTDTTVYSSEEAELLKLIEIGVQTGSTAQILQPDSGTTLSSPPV
Description: as §1

PDGFRA = target: T11, PDGFRA (Homo sapiens, UniProt P16234); conditions: target PDGFRA; read-out: CP1 IC50
T11 construct: assay run by ICE Biosciences (Beijing, China)
Description: as §1

MET = MET (Homo sapiens, UniProt P08581); conditions: target MET; read-out: CP1 IC50
Sequence of MET (P08581 25-1390): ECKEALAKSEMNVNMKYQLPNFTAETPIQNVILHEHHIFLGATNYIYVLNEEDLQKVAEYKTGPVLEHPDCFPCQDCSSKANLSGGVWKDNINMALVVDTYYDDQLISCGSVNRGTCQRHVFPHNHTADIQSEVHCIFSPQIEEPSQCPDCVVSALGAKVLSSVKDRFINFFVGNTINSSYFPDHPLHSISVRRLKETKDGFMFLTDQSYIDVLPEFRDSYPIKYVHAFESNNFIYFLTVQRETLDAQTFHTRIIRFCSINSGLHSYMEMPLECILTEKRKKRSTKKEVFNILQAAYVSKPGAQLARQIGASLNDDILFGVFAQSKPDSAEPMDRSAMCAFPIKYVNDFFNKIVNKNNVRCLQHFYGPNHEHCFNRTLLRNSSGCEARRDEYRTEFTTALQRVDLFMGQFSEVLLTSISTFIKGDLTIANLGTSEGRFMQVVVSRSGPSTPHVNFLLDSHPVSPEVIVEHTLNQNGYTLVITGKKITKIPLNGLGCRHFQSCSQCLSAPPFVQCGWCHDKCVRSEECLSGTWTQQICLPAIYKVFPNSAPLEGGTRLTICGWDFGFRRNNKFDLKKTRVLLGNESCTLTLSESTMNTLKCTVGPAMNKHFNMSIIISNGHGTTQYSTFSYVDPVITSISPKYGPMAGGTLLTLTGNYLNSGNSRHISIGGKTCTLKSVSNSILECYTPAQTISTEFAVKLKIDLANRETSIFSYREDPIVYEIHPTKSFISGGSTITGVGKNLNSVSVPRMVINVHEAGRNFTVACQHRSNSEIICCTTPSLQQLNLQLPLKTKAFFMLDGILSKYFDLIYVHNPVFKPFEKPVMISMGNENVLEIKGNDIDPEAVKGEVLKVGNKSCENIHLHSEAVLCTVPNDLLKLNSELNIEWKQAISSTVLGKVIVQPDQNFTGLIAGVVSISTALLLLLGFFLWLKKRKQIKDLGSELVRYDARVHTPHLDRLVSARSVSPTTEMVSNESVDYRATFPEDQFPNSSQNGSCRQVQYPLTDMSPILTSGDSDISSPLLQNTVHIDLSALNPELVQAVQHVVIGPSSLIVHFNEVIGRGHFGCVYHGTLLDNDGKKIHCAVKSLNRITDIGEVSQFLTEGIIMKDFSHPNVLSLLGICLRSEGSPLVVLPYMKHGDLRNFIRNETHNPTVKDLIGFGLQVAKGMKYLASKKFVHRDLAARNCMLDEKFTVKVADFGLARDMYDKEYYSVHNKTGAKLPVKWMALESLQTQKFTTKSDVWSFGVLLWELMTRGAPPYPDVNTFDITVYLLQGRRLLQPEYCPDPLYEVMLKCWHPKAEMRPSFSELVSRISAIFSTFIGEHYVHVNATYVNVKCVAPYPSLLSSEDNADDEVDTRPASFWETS
Description: as §1

ERBB2 = ERBB2 (Homo sapiens, UniProt P04626); conditions: target ERBB2; read-out: CP1 IC50
Description: as §1

SYK = target: T12, SYK (Homo sapiens, UniProt P43405); conditions: target SYK; read-out: CP1 IC50
T12 construct: assay run by ICE Biosciences (Beijing, China)
Description: as §1

ALK = target: T13, ALK (Homo sapiens, UniProt Q9UM73); conditions: target ALK; read-out: CP1 IC50
T13 construct: ICE Biosciences (Beijing, China), ran the assays
Description: as §1

TEC = target: T14, TEC (Homo sapiens, UniProt P42680); conditions: target TEC; read-out: CP1 IC50
T14 construct: assay run by ICE Biosciences (Beijing, China)
Description: as §1

FYN = target: T15, FYN (Homo sapiens, UniProt P06241); conditions: target FYN; read-out: CP1 IC50
T15 construct: assay run by ICE Biosciences (Beijing, China)
Description: as §1

MUSK = MUSK (Homo sapiens, UniProt O15146); conditions: target MUSK; read-out: CP1 IC50
Description: as §1

BMX = target: T16, BMX (Homo sapiens, UniProt P51813); conditions: target BMX; read-out: CP1 IC50
T16 construct: ICE Biosciences (Beijing, China), ran the assays
Description: as §1

BLK = target: T17, BLK (Homo sapiens, UniProt P51451); conditions: target BLK; read-out: CP1 IC50
T17 construct: ICE Biosciences (Beijing, China), ran the assays
Description: as §1

FGR = target: T18, FGR (Homo sapiens, UniProt P09769); conditions: target FGR; read-out: CP1 IC50
T18 construct: assay run by ICE Biosciences (Beijing, China)
Description: as §1

JAK3 = JAK3 (Homo sapiens, UniProt P52333); conditions: target JAK3; read-out: CP1 IC50
Description: as §1

TNK2 = target: T19, TNK2 (Homo sapiens, UniProt Q07912); conditions: target TNK2; read-out: CP1 IC50
T19 construct: assay run by ICE Biosciences (Beijing, China)
T19 sequence (Q07912 whole entry): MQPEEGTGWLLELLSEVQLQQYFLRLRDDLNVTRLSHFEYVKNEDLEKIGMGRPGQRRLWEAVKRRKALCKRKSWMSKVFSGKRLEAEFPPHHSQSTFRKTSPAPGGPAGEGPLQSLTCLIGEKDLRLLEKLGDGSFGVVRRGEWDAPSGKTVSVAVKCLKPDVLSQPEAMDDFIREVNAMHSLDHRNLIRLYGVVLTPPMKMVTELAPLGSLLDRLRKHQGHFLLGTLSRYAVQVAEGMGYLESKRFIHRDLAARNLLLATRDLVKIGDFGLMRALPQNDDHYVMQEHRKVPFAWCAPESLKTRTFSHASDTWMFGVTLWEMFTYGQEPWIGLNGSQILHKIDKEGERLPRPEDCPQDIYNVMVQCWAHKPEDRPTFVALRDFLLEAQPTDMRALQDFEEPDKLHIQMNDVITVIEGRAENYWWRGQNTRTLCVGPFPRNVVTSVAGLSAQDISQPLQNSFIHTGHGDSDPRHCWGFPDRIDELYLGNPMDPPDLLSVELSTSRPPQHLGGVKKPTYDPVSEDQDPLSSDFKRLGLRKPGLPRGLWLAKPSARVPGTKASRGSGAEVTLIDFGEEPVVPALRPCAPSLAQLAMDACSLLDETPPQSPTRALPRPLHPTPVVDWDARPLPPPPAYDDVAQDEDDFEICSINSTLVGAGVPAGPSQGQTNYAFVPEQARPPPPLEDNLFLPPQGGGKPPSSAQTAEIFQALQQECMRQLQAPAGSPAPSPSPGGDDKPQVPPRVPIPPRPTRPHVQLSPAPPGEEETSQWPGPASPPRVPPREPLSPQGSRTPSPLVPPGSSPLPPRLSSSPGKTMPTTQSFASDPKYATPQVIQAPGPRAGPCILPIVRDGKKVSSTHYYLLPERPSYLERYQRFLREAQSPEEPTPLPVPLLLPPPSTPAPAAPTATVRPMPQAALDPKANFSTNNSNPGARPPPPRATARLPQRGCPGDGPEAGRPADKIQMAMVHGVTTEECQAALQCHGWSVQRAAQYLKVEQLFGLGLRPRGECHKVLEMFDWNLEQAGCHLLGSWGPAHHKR
Description: as §1

FLT1 = target: T20, FLT1 (Homo sapiens, UniProt P17948); conditions: target FLT1; read-out: CP1 IC50
T20 construct: assay run by ICE Biosciences (Beijing, China)
Description: as §1

JAK2 = JAK2 (Homo sapiens, UniProt O60674); conditions: target JAK2; read-out: CP1 IC50
Description: as §1

PRDX3 = target: T21, PRDX3 (Homo sapiens, UniProt P30048); conditions: target PRDX3; read-out: CP1 IC50
T21 construct: ICE Biosciences (Beijing, China), ran the assays
Description: as §1

DDR1 = target: T22, DDR1 (Homo sapiens, UniProt Q08345); conditions: target DDR1; read-out: CP1 IC50
T22 construct: ICE Biosciences (Beijing, China), ran the assays
Description: as §1

LTK = LTK (Homo sapiens, UniProt P29376); conditions: target LTK; read-out: CP1 IC50
Description: as §1

Measured: IC50

CC1=C(CC(=O)/C=C/c2cccc(CO)c2)C(=O)C=C2C1=CC=C1[C@@]2(C)CC[C@@]2(C)C3C[C@](C)(C(=O)CCc4nc(C(O)C(O)O)c(C)nc4C)CC[C@]3(C)CC[C@]12C (stereo partly shown) [CP1]
> 30 µM: all assays above

Reference: article PMC12325182, “Discovery of novel and potent celastrol derivatives as PRDX1 inhibitors for cancer therapy through structure-based virtual screening” (Frontiers in Pharmacology, 2025)
